Here are results for eleven molecules from article PMC8169650, “Identification of Small Molecule Inhibitors of a Mir155 Transcriptional Reporter in Th17 Cells” (Scientific Reports, 2021).

SMILES strings stand for the structures. pEC50: −log10 of the molar value.

Data set [1] has as its system IL-17 production in Th17 cells. The experiment in a line: Intracellular IL-17 flow cytometric cytokine assay under Th17 polarization. It is filed as cell-based, mouse. The note with it: for IL-17+ cells, gated on live CD4+CD44high cells / inhibition at 20 µM: 20 µM; for IL-17+ cells, gated on live CD4+CD44high cells: DMSO 32% (panel b), 36.8% (panel c); for inhibition at 20 µM: Mus musculus, 96 h, day 4, C57BL/6 CD4+ T cells, read-out: down-regulation (inhibition) of IL-17 production compared to control. As for the experimental part: (§1) It has been previously shown that IL-17 production is defective in miR-155 deficient cells. […] To test the hit compounds for IL-17 downregulation, we purified naive CD4^+ T cells from C57BL/6 mice and cultured them under Th17 polarization condition. Small molecules at multiple concentrations (20 µM, 10 µM and 5 µM) were added 18 h post-plating of CD4^+ T cells on anti-CD3/CD28 coated plates and again on day 2 of culture (schema depicted in Fig. 3a).
(§2) Spleens and lymph nodes were harvested from mice and single cell suspensions were prepared by mechanical disruption followed by lysis of red blood cells with 0.83% ammonium chloride. CD4^+ T cells were either isolated by FACS sorting (BD FACS Aria) or were positively selected using magnetic CD4 microbeads (Miltenyi Biotec). For intracellular IL-17 quantitation by flow cytometry, 0.25 million cells/ well were plated in anti-CD3/CD28 (1 µg/ml) coated 48 well plates. A cocktail containing 10 ng/ml each of IL-6, IL-1 β, IL-21 and TGF-β (0.5 ng/ml) and IFNγ, IL-4, IL-12 neutralizing antibodies (10 μg/ml) was used for the Th17 polarizing conditions. All recombinant cytokines were purchased from R&D Systems and crosslinking antibodies were purified from hybridomas (Harlan). Cells were treated with small molecules at indicated concentrations at 18 h and 48 h of cell plating. On day 4 of the culture, cells were stimulated with 20 ng/ml of phorbol 12-myristate 13-acetate (PMA) and ionomycin (1 μg/ml) for 4 h in the presence of brefeldin A. Following stimulation, cells were stained with fixable viability dye (eBioscience) and surface stained for CD44 and CD4, permeabilized using cytofix/cytoperm (BD biosciences) and subsequently, stained for intracellular IL-17. Foxp3/Transcription Factor Staining kit (eBioscience) kit was used for intranuclear staining of RORγt. Samples were acquired on BD Fortessa and analyzed using Flowjo (Tree star Inc).
In general terms: A flow cytometer gives signals particle by particle.

Another data set relates to Mir155 reporter. The experiment in a line: Mir155 reporter Beta-Glo HTS assay (β-gal activity). In kind it is cell-based, mouse. As to conditions: for pEC50: Mus musculus, β-gal signal, 48 h, read-out: EC50, inhibition of Mir155 reporter expression; for pEC50 / effect on Mir155 reporter expression: Th17 cells from Mir155 reporter mice; for effect on Mir155 reporter expression: dose response. As for the experimental part: To develop an assay for the HTS screen, CD4^+ T cells were purified from spleen and lymph nodes of the Mir155 reporter mice. The purified CD4^+ T cells were cultured under Th17 cell-polarizing conditions in twelve well plates following which differentiated Th17 cells were transferred and expanded in six well plates followed by a resting period of 2 days in T cell media (schema depicted in Fig. 1a). We first optimized the cell number to maximize the assay window. To this end, differentiated Th17 cells were plated at different cell densities in the wells of polystyrene 1536-well plates under Th17 polarizing conditions. T cell activation was accomplished using two protocols. In the first protocol, magnetic beads coupled to anti-CD3 and anti-CD28 antibodies (CD3/CD28 microbeads) were added to mediate T cell activation as induction of MiR155 expression requires engagement of the TCR CD3 complex (signal 1) plus the co-stimulatory molecule CD28 (signal 2). The cells along with the beads were incubated at 37 °C, 5% CO2 for 48 h and, subsequently, high-throughput quantitation of β-gal activity was performed after 30 min of incubation using the Beta-Glo Assay system (Fig. 1b).
The NPC collection was screened at seven concentrations (top concentration 46 µM; 1:5 dilution thereafter) and drug response curves for the compounds were generated using our qHTS curve class classification algorithm as described above.
CD4^+ cells were purified from spleens and lymph nodes of Mir155 reporter mice as described above. Briefly, single cell suspensions were prepared by mechanical disruption followed by lysis of red blood cells with 0.83% ammonium chloride. CD4^+ T cells were either isolated by FACS sorting (BD FACS Aria) or were positively selected using magnetic CD4 microbeads (Miltenyi Biotec)[43]. 1 million CD4^+ cells/well were cultured in anti-CD3/CD28 (1 µg/ml each) coated 12 well plates under Th17 polarization conditions following which differentiated Th17 cells were transferred and expanded in six well plates followed by a resting period of 2 days in T cell media. A cocktail containing 10 ng/ml each of IL-6, IL-1 β, IL-21 and TGF-β (0.5 ng/ml) and IFNγ, IL-4, IL-12 neutralizing antibodies (10 μg/ml) was used for the Th17 polarizing conditions. For the HTS assay, 2000 differentiated Th17 cells/well in Th17 polarizing media were added to Greiner-one high base solid bottom white tissue culture treated 1536 well plates (catalog # 789173-F) using a small cassette and a Multidrop Combi dispenser (Thermo Fisher Scientific Inc.,Waltham, MA). Compounds were added using a Kalypsys pintool (Columns 5–48) and magnetic beads coupled to anti-CD3 and anti-CD28 (CD3/CD28 microbeads) were added to mediate T cell activation. CD3/CD28 microbeads were not added to first 2 columns and those wells served as basal control. DMSO was added to columns 3 and 4 and served as 100% signal. The plates were incubated for 48 h at 37 °C, 5% CO2, 95% humidity covered with low evaporation stainless steel lids from Kalypsys. After 48 h of incubation, 5 µl of Beta-Glo reagent (Beta Glo Assay System, Promega) was added using a Bioraptor Flying Reagent Dispenser (Aurora Discovery-BD) and the plates were incubated at room temperature for 30 min. Luminescence signal was captured using a 10 s exposure with a ViewLux (Perkin Elmer) containing a luminescent filter. Beta Glo reagent consists of Beta Glo substrate and buffer that are combined to form the Beta Glo reagent (Beta Glo Assay System, Promega).

A further data set relates to Th17 cells. The experiment in a line: RNA-seq of CD4+ T cells under Th17 polarizing conditions. It is filed as cell-based, mouse. The note with it: 20 µM, 24 h, vs DMSO. The source says:
The (E)-1-(phenylsulfonyl)-2-styryl-1H-benzo[d] imidazoles were identified from the diversity library and the target for these compounds is not known. We investigated the possible molecular mechanism(s) regulating impaired Th17 cell function using whole-transcriptome RNA-sequencing (RNA-seq) of CD4^+ T cells treated with NCGC00108246 or NCGC00108250 (representative imidazole compounds) under Th17 polarizing conditions. We performed differential gene expression to compare the two imidazole-treated conditions (n = 6) to DMSO (n = 3). Imidazole treated samples (NCGC00108246 or NCGC00108250) had similar gene expression profiles and clustered together, and distinct from DMSO. […] We confirmed down-regulation of IL-17 cytokines (IL-17a and IL-17f.) in NCGC00108246 or NCGC00108250 treated cells (Fig. 4a,b). […] In alignment with the protein data, transcript levels for Th17 cell-specific transcription factor RORγt encoded by Rorc gene were not affected after treatment with imidazoles (Fig. S2b,c).
For RNA seq, T cells were treated with compounds for 24 h in Th17 polarizing conditions, following which RNA was extracted using the mirVana kit (Applied Biosystems). Qubit RNA broad range assay in the Qubit Flurometer (Invitrogen) was used to measure RNA concentration, following which RNA integrity was determined with Eukaryote Total RNA Nano Series II ChIP on a 2100 Bioanalyzer (Agilent). TruSeq RNA sample preparation kit (Illumina) was used to prepare RNA-seq libraries. Briefly, oligo-dT purified mRNA was fragmented and subjected to first and second strand cDNA synthesis. cDNA fragments were blunt ended, ligated to Illumina adaptors and PCR amplified to enrich for the fragments ligated to adaptors. The resulting cDNA libraries were verified and quantified on Agilent Bioanalyzer and single-end 96 cycle sequencing was conducted (Illumina) as previously described.
For data analysis, RNA-seq reads were aligned to the mm10 genome and the GRCm38 v87 transcriptome with STAR v2.5.2a[44] using default parameters and output tracks normalized by RPM (–outWigNorm RPM). RSEM v1.3[45] was used to calculate gene counts and TPMs on the transcriptome-aligned reads as previously described[16],[43]. Differential expression analysis was performed in R v3.5.2, using DESeq2[46] v1.22.2, resulting in 2328 differentially expressed genes when contrasting NCGC00108246 or NCGC00108250 treated samples versus DMSO controls. […] The volcano plot was generated with the R package (R-project.org at https://www.R-project.org/), Enhanced Volcano. Heatmaps were generated with the R package, pheatmap. Integrative Genomics Viewer v2.4.19[48] was used for visualization of normalized bigwig tracks.

Another data set has as its system CD4+ T cells. The data set is described as follows: Viability dye and CD44 activation staining in the IL-17 flow cytometric assay. It is filed as cell-based. As to conditions: Fig. S2a. As for the experimental part:
as §1, §2

The mark [2] stands for this setting: fresh batch compared to older batch.

Usually inhibition stands for the share of the control response that was lost under treatment. What is called pEC50 is −log10 of the EC50, conventionally taken in molar units. Take `CCOc1ccc(/C=C/c2nc3ccccc3n2S(=O)(=O)c2ccc(Br)cc2)cc1` [NCGC00108244]: in data set [1], the “IL-17+ cells, gated on live CD4+CD44high cells” value (from here on “IL-17+ cells, gated”) is given as 30.4% and the inhibition at 20 µM amounted to 17%. Besides, the pEC50 with Mir155 reporter was 4.90.

Consider `CCOc1ccc(/C=C/c2nc3ccccc3n2S(=O)(=O)c2cccc(Cl)c2)cc1` [NCGC00108246], for which, in data set [1], the “IL-17+ cells, gated” value is reported as 3.1% and the inhibition at 20 µM stood at 90%. Moreover, the negative logarithm of the EC50 (pEC50) in the data set with Mir155 reporter was 5.46. Also, in the data set with Th17 cells, the “IL-17a and IL-17f transcripts” value was “down-regulation”; the “IL-22 and IL-23r transcripts” value was “down-regulated”.

As for `CSc1ccc(/C=C/c2nc3ccccc3n2S(=O)(=O)c2ccc(Br)cc2)cc1` [NCGC00108248, (E)-1-((4-bromophenyl)sulfonyl)-2-(4-(methylthio)styryl)-1H-benzo[d] imidazole], in data set [1], the “IL-17+ cells, gated” value came to 3.8% and the inhibition at 20 µM amounted to 90%. Further, in data set [1] (setting [2]), the “inhibition of IL-17, solutions of fresh powders” value was “not potent inhibitors of IL-17”. Moreover, in the data set on Mir155 reporter, the pEC50 was 5.66. In addition, the “activity in miR-155 HTS assay, solutions of fresh powders” value in the data set with Mir155 reporter (setting [2]) is “inactive or demonstrated attenuated activity”.

With `CSc1ccc(/C=C/c2nc3ccccc3n2S(=O)(=O)c2cccc(Cl)c2)cc1` [NCGC00108250], in data set [1], the “IL-17+ cells, gated” value was 4.4% and the inhibition at 20 µM turned out to be 88%. In addition, the “IL-17 / RORγt plot, percent cells, gated on live CD4+CD44high” value in data set [1] (Fig. S2b, DMSO 32.4% / 21.2%) was 3.2%. Further, in the data set on Mir155 reporter, the pEC50 was 5.70. Besides, in the data set on Th17 cells, the “IL-17a and IL-17f transcripts” value is “down-regulation”; the “IL-22 and IL-23r transcripts” value was “down-regulated”. Besides, in the data set on CD4+ T cells (DMSO 77.4% / 80.6%), the “live cells (fixable viability dye, Live-dead)” value was 80.5%. In addition, the “CD4+ CD44+ cells” value in the data set on CD4+ T cells (DMSO 97.2% / 98.2%) was 96.1%.

Turning to `Cc1ccc(/C=C/c2nc3ccccc3n2S(=O)(=O)c2cccc(Cl)c2)cc1` [NCGC00140605], in data set [1], the “IL-17+ cells, gated” value worked out at 13.1% and the inhibition at 20 µM was found to be 65%. Also, the pEC50 in the data set on Mir155 reporter is 6.22.

As to `Cc1ccc(/C=C/c2nc3ccccc3n2S(=O)(=O)c2ccc(Br)cc2)cc1` [NCGC00140607], in data set [1], the “IL-17+ cells, gated” value is 16.6% and the inhibition at 20 µM amounted to 55%. Besides, the pEC50 with Mir155 reporter was 5.43.

As for `CSc1ccc(/C=C/c2nc3ccccc3[nH]2)cc1` [NCGC00507974, (E)-2-(4-(methylthio)styryl)-1H-benzo[d] imidazole], in data set [1] (C57BL/6 CD4+ T cells, Th17 polarization), the “effect on IL-17 production” value is on record as “dose-dependent inhibition of IL-17 production”. Also, in the data set with Mir155 reporter, the pEC50 is 5.92 and the “effect on Mir155 reporter expression” value is listed as “dose dependent reduction of Mir155 reporter expression”.

For `c1ccc(-c2ccc(C(c3ccccc3)n3ccnc3)cc2)cc1` (stereo not shown) [bifonazole, reference compound], in the data set with Mir155 reporter, the “effect on Mir155 reporter expression” value is on record as “either modest down-regulators or did not affect Mir155 reporter expression”.

On to `OC(Cn1cncn1)(Cn1cncn1)c1ccc(F)cc1F` [fluconazole, reference compound], for which the “effect on Mir155 reporter expression” value in the data set on Mir155 reporter is listed as “either modest down-regulators or did not affect Mir155 reporter expression”.

Regarding `CC(=O)N1CCN(c2ccc(OCC3COC(Cn4ccnc4)(c4ccc(Cl)cc4Cl)O3)cc2)CC1` (stereo not shown) [ketoconazole, reference compound], in the data set with Mir155 reporter, the “effect on Mir155 reporter expression” value is recorded as “either modest down-regulators or did not affect Mir155 reporter expression”.

`Clc1cccc(C(c2ccc3[nH]cnc3c2)n2ccnc2)c1` (stereo not shown) [liarozole, reference compound]: the “effect on Mir155 reporter expression” value in the data set with Mir155 reporter is “either modest down-regulators or did not affect Mir155 reporter expression”.
